From patent publication US20230365592A1 (Agios Pharmaceuticals, Inc., priority 2022, published 2023)

Molecular target: T1, human PAH with the R408W mutation (Homo sapiens, UniProt P00439, R408W)
T1 construct: expressed in transfected cells
T1 sequence (P00439 1-452 R408W): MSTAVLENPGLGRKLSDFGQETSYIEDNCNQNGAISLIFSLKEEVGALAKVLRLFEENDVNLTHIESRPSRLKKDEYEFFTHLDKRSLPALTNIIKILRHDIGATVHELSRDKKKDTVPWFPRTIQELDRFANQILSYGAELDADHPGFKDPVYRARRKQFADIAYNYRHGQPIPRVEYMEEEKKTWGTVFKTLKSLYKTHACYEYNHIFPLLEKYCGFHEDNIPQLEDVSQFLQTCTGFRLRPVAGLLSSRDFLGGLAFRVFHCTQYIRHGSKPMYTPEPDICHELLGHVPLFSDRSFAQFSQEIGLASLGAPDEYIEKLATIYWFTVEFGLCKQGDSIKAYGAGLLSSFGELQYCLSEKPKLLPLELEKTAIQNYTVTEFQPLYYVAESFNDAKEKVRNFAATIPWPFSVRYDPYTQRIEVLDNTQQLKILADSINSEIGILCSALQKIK
Assay: Cell Based Phenylalanine Flux Assay;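 further: after compound treatment, cells received sepiapterin plus isotope-labelled Phenylalanine for 4 hours, then labelled Tyrosine in the medium was quantified, 10-point 2-fold dilution series run in duplicate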
Conditions: A375 cells expressing R408W PAH; 24 hrs with compound, then 20 µM sepiapterin and 800 µM 13C9,15N-Phenylalanine for 4 hours; 13C-Tyrosine by LC-MS; average where tested multiple times; read-out: AC50

O=C(c1nnc(-c2ccccn2)o1)N1CCc2[nH]cnc2C1c1cc2cc(C(F)(F)F)ccn2n1 (centres unmarked) and Cn1cc(-c2nnc(C(=O)N3CCc4[nH]cnc4C3c3cc4cc(C(F)(F)F)ccn4n3)o2)cn1 (centres unmarked) fall in the same range of AC50: 1000 to 5000 nM for the first, 1000 to 5000 nM for the second.

Compared with Cc1cccn2nc(C3c4nc[nH]c4CCN3C(=O)c3nnc(-c4cn[nH]c4)o3)cc12 (centres unmarked), Cn1ncnc1C(=O)N1CCc2[nH]cnc2C1c1cc2ccccn2n1 (centres unmarked) is lower in AC50: > 5000 nM for the first, 1000 to 5000 nM for the second.

Same assay, conditions: A375 cells expressing human PAH R408W; 24 hrs compound incubation; 13C-Tyrosine by LC-MS; average where tested multiple times; read-out: AC50

First: Fc1ccc(-c2nnc(N3CCc4[nH]cnc4[C@H]3c3cc4cccc(C(F)(F)F)n4n3)o2)cc1 [Example 2129, (S)-2-(4-fluorophenyl)-5-(4-(7-(trifluoromethyl)pyrazolo[1,5-a]pyridin-2-yl)-1,4,6,7-tetrahydro-5H-imidazo[4,5-c]pyridin-5-yl)-1,3,4-oxadiazole]
Second: FC(F)c1cccc2cc([C@@H]3c4nc[nH]c4CCN3c3nnc(C(F)(F)F)o3)nn12 [Example 2487, (S)-2-(4-(7-(difluoromethyl)pyrazolo[1,5-a]pyridin-2-yl)-6,7-dihydro-1H-imidazo[4,5-c]pyridin-5(4H)-yl)-5-(trifluoromethyl)-1,3,4-oxadiazole]
The AC50 of the first is lower: < 500 nM for the first, 1000 to 5000 nM for the second.

CC(C)(C)c1nnc(C(=O)N2CCc3[nH]cnc3[C@H]2c2cc3cccc(C(F)(F)F)n3n2)o1 [Example 2409, (S)-(5-(tert-butyl)-1,3,4-oxadiazol-2-yl)(4-(7-(trifluoromethyl)pyrazolo[1,5-a]pyridin-2-yl)-6,7-dihydro-1H-imidazo[4,5-c]pyridin-5(4H)-yl)methanone] and Cc1c(-c2nnc(C(=O)N3CCc4[nH]cnc4[C@@H]3c3cc4c(C5CC5)cccn4n3)o2)cnn1C [Example 1899, (R)-(4-(4-cyclopropylpyrazolo[1,5-a]pyridin-2-yl)-1,4,6,7-tetrahydro-5H-imidazo[4,5-c]pyridin-5-yl)(5-(1,5-dimethyl-1H-pyrazol-4-yl)-1,3,4-oxadiazol-2-yl)methanone] fall in the same range of AC50: 1000 to 5000 nM for the first, 1000 to 5000 nM for the second.

First: Cn1cc(-c2ccc3c(C(=O)N4CCc5[nH]cnc5[C@@H]4c4cc5c(F)cccn5n4)cnn3c2)cn1 [Example 2435, (R)-(4-(4-fluoropyrazolo[1,5-a]pyridin-2-yl)-6,7-dihydro-1H-imidazo[4,5-c]pyridin-5(4H)-yl)(6-(1-methyl-1H-pyrazol-4-yl)pyrazolo[1,5-a]pyridin-3-yl)methanone]
Second: Fc1cccc(N2CCc3[nH]cnc3[C@@H]2c2cc3c(F)cccn3n2)n1 [Example 1954, (R)-4-(4-fluoropyrazolo[1,5-a]pyridin-2-yl)-5-(6-fluoropyridin-2-yl)-4,5,6,7-tetrahydro-1H-imidazo[4,5-c]pyridine]
The AC50 of the first is higher: > 5000 nM for the first, 1000 to 5000 nM for the second.

CC(C)c1nnc(N2CCc3[nH]cnc3[C@@H]2c2cc3c(Cl)cccn3n2)o1 [Example 2324, (R)-2-(4-(4-chloropyrazolo[1,5-a]pyridin-2-yl)-1,4,6,7-tetrahydro-5H-imidazo[4,5-c]pyridin-5-yl)-5-isopropyl-1,3,4-oxadiazole] and O=C(c1nc2ccccc2o1)N1CCc2[nH]cnc2[C@@H]1c1cc2ccccn2n1 [Example 2049, (R)-benzo[d]oxazol-2-yl(4-(pyrazolo[1,5-a]pyridin-2-yl)-1,4,6,7-tetrahydro-5H-imidazo[4,5-c]pyridin-5-yl)methanone] cannot be ordered by AC50: > 5000 nM for the first, > 5000 nM for the second.

Same assay, conditions: A375 cells expressing human R408W PAH; 24 hrs compound incubation; 13C-Tyrosine by LC-MS; average where tested multiple times; read-out: AC50

O=C(c1nnc(-c2ccn(C(F)(F)F)n2)o1)N1CCc2[nH]cnc2[C@H]1c1cc2c(C(F)(F)F)cccn2n1 [Example 1512, (S)-(5-(1-(trifluoromethyl)-1H-pyrazol-3-yl)-1,3,4-oxadiazol-2-yl)(4-(4-(trifluoromethyl)pyrazolo[1,5-a]pyridin-2-yl)-6,7-dihydro-1H-imidazo[4,5-c]pyridin-5(4H)-yl)methanone] and O=C(c1nnc(-c2cnccn2)o1)N1CCc2[nH]cnc2[C@H]1c1cc2c(C(F)(F)F)cccn2n1 [Example 1300, (S)-(5-(pyrazin-2-yl)-1,3,4-oxadiazol-2-yl)(4-(4-(trifluoromethyl)pyrazolo[1,5-a]pyridin-2-yl)-6,7-dihydro-1H-imidazo[4,5-c]pyridin-5(4H)-yl)methanone] cannot be ordered by AC50: < 500 nM for the first, < 500 nM for the second.

Compared with Cc1cccn2nc([C@H]3c4nc[nH]c4CCN3C(=O)c3nnc(-c4cnn(C)c4C)o3)cc12 [Example 989, (R)-(5-(1,5-dimethyl-1H-pyrazol-4-yl)-1,3,4-oxadiazol-2-yl)(4-(4-methylpyrazolo[1,5-a]pyridin-2-yl)-6,7-dihydro-1H-imidazo[4,5-c]pyridin-5(4H)-yl)methanone], Cc1cccn2nc([C@@H]3c4nc[nH]c4CCN3C(=O)c3nnc(-c4ccccn4)o3)cc12 [Example 741, (S)-(4-(4-methylpyrazolo[1,5-a]pyridin-2-yl)-6,7-dihydro-1H-imidazo[4,5-c]pyridin-5(4H)-yl)(5-(pyridin-2-yl)-1,3,4-oxadiazol-2-yl)methanone] is lower in AC50: 1000 to 5000 nM for the first, < 500 nM for the second.

First: Cc1cccn2nc([C@@H]3c4nc[nH]c4CCN3C(=O)c3cnco3)cc12 [Example 768, (S)-(4-(4-methylpyrazolo[1,5-a]pyridin-2-yl)-6,7-dihydro-1H-imidazo[4,5-c]pyridin-5(4H)-yl)(oxazol-5-yl)methanone]
Second: CC(C)(O)c1nc(C2CC2)c(C(=O)N2CCc3[nH]cnc3[C@@H]2c2cc3ccccn3n2)o1 [Example 625, (R)-(4-cyclopropyl-2-(2-hydroxypropan-2-yl)oxazol-5-yl)(4-(pyrazolo[1,5-a]pyridin-2-yl)-6,7-dihydro-1H-imidazo[4,5-c]pyridin-5(4H)-yl)methanone]
The AC50 of the first is lower: < 500 nM for the first, 1000 to 5000 nM for the second.

First: Cn1cc(-c2nnc(C(=O)N3CCc4[nH]cnc4[C@H]3c3cc4ccccn4n3)o2)c(C(F)(F)F)n1 [Example 678, (S)-(5-(1-methyl-3-(trifluoromethyl)-1H-pyrazol-4-yl)-1,3,4-oxadiazol-2-yl)(4-(pyrazolo[1,5-a]pyridin-2-yl)-6,7-dihydro-1H-imidazo[4,5-c]pyridin-5(4H)-yl)methanone]
Second: O=C(c1nnc(-c2ccn(C(F)F)n2)o1)N1CCc2[nH]cnc2[C@@H]1c1cc2ccccn2n1 [Example 667, (R)-(5-(1-(difluoromethyl)-1H-pyrazol-3-yl)-1,3,4-oxadiazol-2-yl)(4-(pyrazolo[1,5-a]pyridin-2-yl)-6,7-dihydro-1H-imidazo[4,5-c)pyridin-5(4H)-yl)methanone]
The AC50 of the first is lower: 1000 to 5000 nM for the first, > 5000 nM for the second.

Cc1cnn(C)c1-c1nnc(C(=O)N2CCc3[nH]cnc3[C@H]2c2cc3cccc(F)n3n2)o1 [Example 1528, (S)-(5-(1,4-dimethyl-1H-pyrazol-5-yl)-1,3,4-oxadiazol-2-yl)(4-(7-fluoropyrazolo[1,5-a]pyridin-2-yl)-6,7-dihydro-1H-imidazo[4,5-c]pyridin-5(4H)-yl)methanone] and Cn1ccc(-c2nnc(C(=O)N3CCc4[nH]cnc4[C@H]3c3cc4cccc(Cl)n4n3)o2)n1 [Example 976, (S)-(4-(7-chloropyrazolo[1,5-a]pyridin-2-yl)-6,7-dihydro-1H-imidazo[4,5-c)pyridin-5(4H)-yl)(5-(1-methyl-1H-pyrazol-3-yl)-1,3,4-oxadiazol-2-yl)methanone] cannot be ordered by AC50: < 500 nM for the first, < 500 nM for the second.

In the case of O=C(c1nnc(-c2cnccn2)o1)N1CCc2[nH]cnc2[C@@H]1c1cc2cccc(C(F)(F)F)n2n1 [Example 1360, (R)-(5-(pyrazin-2-yl)-1,3,4-oxadiazol-2-yl)(4-(7-(trifluoromethyl)pyrazolo[1,5-a]pyridin-2-yl)-6,7-dihydro-1H-imidazo[4,5-c]pyridin-5(4H)-yl)methanone], the AC50 is reported as > 5000 nM.
